This note sets out measurements from patent US11590116B2 (THERAVANCE BIOPHARMA R&D IP, LLC, priority 2019, dated 2023).

Assay [1] deals with TGF-β-stimulated SMAD3 phosphorylation in BEAS-2B cells. The assay can be described thus: Cellular ALK5 potency assay, inhibition of TGF-β stimulated pSMAD3 formation in BEAS-2B cells. It counts as cell-based. Particulars: Homo sapiens; inhibition of TGF-β stimulated pSMAD3 formation, BEAS-2B cells; read-out: BEAS2B pIC50 (converted). The gist of the method:
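BEAS-2B human lung epithelial cells pre-treated 1 h at 37° C with compound in HBSS/25 mM HEPES/1% BSA, then stimulated 30 min with 10 ng/mL TGF-β (final). Lysates assayed for pSMAD3 by AlphaLISA; pIC50 from dose-dependent change versus stimulated untreated cells.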

Assay [2] addresses T1, recombinant human ALK5 (TGF-βR1) protein (Homo sapiens, UniProt P36897).
T1 construct: purchased Life Technologies PR9075A
T1 sequence (P36897 34-503): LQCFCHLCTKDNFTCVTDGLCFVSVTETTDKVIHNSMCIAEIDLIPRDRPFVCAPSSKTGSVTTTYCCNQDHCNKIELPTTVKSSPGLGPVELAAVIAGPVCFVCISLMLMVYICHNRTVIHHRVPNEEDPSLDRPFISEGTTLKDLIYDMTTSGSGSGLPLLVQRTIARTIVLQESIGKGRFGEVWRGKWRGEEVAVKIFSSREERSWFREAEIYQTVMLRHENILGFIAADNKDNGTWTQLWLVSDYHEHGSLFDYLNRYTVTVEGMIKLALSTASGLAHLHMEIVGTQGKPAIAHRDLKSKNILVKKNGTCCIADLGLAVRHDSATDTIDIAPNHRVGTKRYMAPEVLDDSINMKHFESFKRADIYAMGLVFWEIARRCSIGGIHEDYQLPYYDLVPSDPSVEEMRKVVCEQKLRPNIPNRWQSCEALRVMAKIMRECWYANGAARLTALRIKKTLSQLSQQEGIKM
Kind of assay: Biochemical ALK5 (TGF-βR1) assay to measure pKi (LANCE Ultra ULight kinase assay). Particulars: apparent pKi from pIC50 by Cheng-Prusoff, read-out: ALK5 pKi (converted). The gist of the method: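 Dose range 10 μM–25 pM; enzyme + compound 60 min RT; ATP added (5× stock 125 μM, 2 mM DTT); 60 min 37 °C; stop with EDTA + Eu anti-phospho-Topo IIα Thr1342 Ab; TR-FRET ex 320/340, em 665 nm. 4-param pIC50 → pKi (Cheng-Prusoff).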
Background: Time-resolved FRET reads energy transfer from a long-lived donor to a nearby acceptor.

As to `CCOC(=O)Cn1cc(-c2cnc3ccc(-c4c[nH]nc4-c4cccc(C)n4)nc3c2)nn1` [Compound 76, ethyl 2-[4-[6-[3-(6-methyl-2-pyridyl)-1H-pyrazol-4-yl]-1,5-naphthyridin-3-yl]triazol-1-yl]acetate], in assay [1], the IC50 was 25.1 to 158 nM. Also, the Ki in assay [2] was 0.0398 to 0.316 nM.
In the same order, the values of `Cc1cccc(-c2n[nH]cc2-c2ccc3ncc(-c4cn(C)nn4)cc3n2)n1` [Compound 71, 2-[3-(6-methyl-2-pyridyl)-1H-pyrazol-4-yl]-7-(1-methyltriazol-4-yl)-1,5-naphthyridine] are 25.1 to 158 nM and < 0.0316 nM.
As to `Cc1cccc(-c2[nH]cnc2-c2ccc3ncc(-c4ncc(C(=O)OC5CCNCC5)cn4)cc3c2)n1` [Compound 1101, 4-piperidyl 2-[6-[5-(6-methyl-2-pyridyl)-1H-imidazol-4-yl]-3-quinolyl]pyrimidine-5-carboxylate], in assay [1], the IC50 is 25.1 to 158 nM. The Ki in assay [2] was 0.0398 to 0.316 nM.
Turning to `Cc1cccc(-c2n[nH]cc2-c2ccc3ncc(N4CCCNCC4)cc3n2)n1` [Compound 349, 7-(1,4-diazepan-1-yl)-2-[3-(6-methyl-2-pyridyl)-1H-pyrazol-4-yl]-1,5-naphthyridine], the IC50 in assay [1] is 25.1 to 158 nM. Besides, the Ki in assay [2] was 0.0398 to 0.316 nM.
With `Cc1cccc(-c2n[nH]cc2-c2ccc3ncc(-c4ccc(C5CCCN(C)C5)cc4)cc3n2)n1` (stereo not shown) [Compound 552, 7-[4-(1-methyl-3-piperidyl)phenyl]-2-[3-(6-methyl-2-pyridyl)-1H-pyrazol-4-yl]-1,5-naphthyridine], the IC50 in assay [1] is 200 to 1260 nM. For the same compound, the Ki in assay [2] was < 0.0316 nM.
`Cc1cccc(-c2n[nH]cc2-c2ccc3nccc(CN(C)CCN4CCOCC4)c3n2)n1` [Compound 828, N-methyl-N-[[6-[3-(6-methyl-2-pyridyl)-1H-pyrazol-4-yl]-1,5-naphthyridin-4-yl]methyl]-2-morpholino-ethanamine]: the IC50 in assay [1] is 25.1 to 158 nM. The Ki in assay [2] was 3.98 to 31.6 nM.
In the same order, the values of `Cc1cccc(-c2n[nH]cc2-c2ccc3ncc(N4CCN(CC#N)CC4)cc3n2)n1` [Compound 299, 2-[4-[6-[3-(6-methyl-2-pyridyl)-1H-pyrazol-4-yl]-1,5-naphthyridin-3-yl]piperazin-1-yl]acetonitrile] are < 20 nM and < 0.0316 nM.
On to `Cc1cccc(-c2[nH]cnc2-c2ccc3ncc(-c4csc(C(=O)O)n4)cc3c2)n1` [Compound 1152, 4-[6-[5-(6-methyl-2-pyridyl)-1H-imidazol-4-yl]-3-quinolyl]thiazole-2-carboxylic acid], for which the IC50 in assay [1] was < 20 nM. Also, the Ki in assay [2] was < 0.0316 nM.
In the same order, the values of `Cc1cccc(-c2[nH]cnc2-c2ccc3ncc(NCCN4CC5(CNC5)C4)cc3c2)n1` [Compound 709, N-[2-(2,6-diazaspiro[3.3]heptan-2-yl)ethyl]-6-[5-(6-methyl-2-pyridyl)-1H-imidazol-4-yl]quinolin-3-amine] are 25.1 to 158 nM and 0.0398 to 0.316 nM.
In the same order, the values of `Cc1cccc(-c2[nH]cnc2-c2ccc3ncc(N4CCNC(CC(=O)O)C4)cc3c2)n1` (stereo not shown) [Compound 500, 2-(4-(6-(5-(6-methylpyridin-2-yl)-1H-imidazol-4-yl)quinolin-3-yl)piperazin-2-yl)acetic acid] are 1580 to 10000 nM and 0.0398 to 0.316 nM.
For `Cc1cccc(-c2[nH]cnc2-c2ccc3ncc(-c4cc(C(=O)O)ccn4)cc3c2)n1` [Compound 1137, 2-[6-[5-(6-methyl-2-pyridyl)-1H-imidazol-4-yl]-3-quinolyl]pyridine-4-carboxylic acid] the same measures were 1580 to 10000 nM and 0.0398 to 0.316 nM.
For the compound `Cc1nc(-c2n[nH]cc2-c2ccc3ncc(-c4cc5c(nn4)CCNC5)cc3n2)ccc1F` [Compound 289, 3-[6-[3-(5-fluoro-6-methyl-2-pyridyl)-1H-pyrazol-4-yl]-1,5-naphthyridin-3-yl]-5,6,7,8-tetrahydropyrido[4,3-c]pyridazine], the IC50 in assay [1] is 200 to 1260 nM. Moreover, the Ki in assay [2] was 0.398 to 3.16 nM.
For `Cc1cccc(-c2[nH]cnc2-c2ccc3ncc(C4=CCC5(CCNC(=O)C5)CC4)cc3c2)n1` (stereo not shown) [Compound 1206, 9-[6-[5-(6-methyl-2-pyridyl)-1H-imidazol-4-yl]-3-quinolyl]-3-azaspiro[5.5]undec-9-en-4-one] the same measures were 25.1 to 158 nM and < 0.0316 nM.
In the same order, the values of `Cc1cccc(-c2[nH]cnc2-c2ccc3ncc(N4CCC5(CCNCC5)C4)cc3c2)n1` [Compound 160, 2-[6-[5-(6-methyl-2-pyridyl)-1H-imidazol-4-yl]-3-quinolyl]-2,8-diazaspiro[4.5]decane] are 25.1 to 158 nM and < 0.0316 nM.
Take `Cc1cccc(-c2[nH]cnc2-c2ccc3ncc(NC(=O)C4CCNC4)cc3c2)n1` (stereo not shown) [Compound 618, N-[6-[5-(6-methyl-2-pyridyl)-1H-imidazol-4-yl]-3-quinolyl]pyrrolidine-3-carboxamide]: the IC50 in assay [1] was 200 to 1260 nM. For the same compound, the Ki in assay [2] is 0.0398 to 0.316 nM.
Turning to `Cc1cccc(-c2[nH]cnc2-c2ccc3ncc(-c4cccc(C(=O)OCC5CNC5)n4)cc3c2)n1` [Compound 1044, azetidin-3-ylmethyl 6-[6-[5-(6-methyl-2-pyridyl)-1H-imidazol-4-yl]-3-quinolyl]pyridine-2-carboxylate], in assay [1], the IC50 was 200 to 1260 nM. For the same compound, the Ki in assay [2] is < 0.0316 nM.
On to `Cc1cccc(-c2[nH]cnc2-c2ccc3ncc(N4CCC(NCCSC5CCOC5=O)C4)cc3c2)n1` (stereo not shown) [Compound 230, 3-[2-[[1-[6-[5-(6-methyl-2-pyridyl)-1H-imidazol-4-yl]-3-quinolyl]pyrrolidin-3-yl]amino]ethylsulfanyl]tetrahydrofuran-2-one], for which the IC50 in assay [1] was 25.1 to 158 nM. Moreover, in assay [2], the Ki is < 0.0316 nM.
For `Cc1cccc(-c2[nH]cnc2-c2ccc3ncc(C(=O)OC[C@H]4CCCN4)cc3c2)n1` [Compound 760, [(2R)-pyrrolidin-2-yl]methyl 6-[5-(6-methyl-2-pyridyl)-1H-imidazol-4-yl]quinoline-3-carboxylate] the same measures were 25.1 to 158 nM and 0.398 to 3.16 nM.
For `Cc1cccc(-c2n[nH]cc2-c2ccc3ncc(-c4nc5c([nH]4)CCNC5)cc3n2)n1` [Compound 134, 2-[3-(6-methyl-2-pyridyl)-1H-pyrazol-4-yl]-7-(4,5,6,7-tetrahydro-1H-imidazo[4,5-c]pyridin-2-yl)-1,5-naphthyridine] the same measures were 1580 to 10000 nM and 0.0398 to 0.316 nM.
For `CNC1CCCN(c2cnc3ccc(-c4c[nH]nc4-c4cccc(C)n4)nc3c2)C1` (stereo not shown) [Compound 606, N-methyl-1-[6-[3-(6-methyl-2-pyridyl)-1H-pyrazol-4-yl]-1,5-naphthyridin-3-yl]piperidin-3-amine] the same measures were 25.1 to 158 nM and 0.0398 to 0.316 nM.
`Cc1cccc(-c2[nH]cnc2-c2ccc3ncc(NCCC4CCNCC4)cc3c2)n1` [Compound 496, 6-[5-(6-methyl-2-pyridyl)-1H-imidazol-4-yl]-N-[2-(4-piperidyl)ethyl]quinolin-3-amine]: the IC50 in assay [1] is 25.1 to 158 nM. Besides, in assay [2], the Ki was 0.0398 to 0.316 nM.
In the same order, the values of `Cc1cccc(-c2[nH]cnc2-c2ccc3ncc(C(=O)OCCN4CCC5(CCNCC5)C4)cc3c2)n1` [Compound 896, 2-(2,8-diazaspiro[4.5]decan-2-yl)ethyl 6-(5-(6-methylpyridin-2-yl)-1H-imidazol-4-yl)quinoline-3-carboxylate] are 200 to 1260 nM and 0.0398 to 0.316 nM.
For `Cc1cccc(-c2[nH]cnc2-c2ccc3ncc(C(=O)OCCN4C[C@@H](C)N[C@@H](C)C4)cc3c2)n1` [Compound 886, 2-((3S,5R)-3,5-dimethylpiperazin-1-yl)ethyl 6-(5-(6-methylpyridin-2-yl)-1H-imidazol-4-yl)quinoline-3-carboxylate], in assay [1], the IC50 is 25.1 to 158 nM. Moreover, the Ki in assay [2] was 0.0398 to 0.316 nM.
In the case of `Cc1cccc(-c2n[nH]cc2-c2ccc3ncc(N4CCN(C5(C(N)=O)CCCC5)CC4)cc3n2)n1` [Compound 528, 1-[4-[6-[3-(6-methyl-2-pyridyl)-1H-pyrazol-4-yl]-1,5-naphthyridin-3-yl]piperazin-1-yl]cyclopentanecarboxamide], the IC50 in assay [1] was 200 to 1260 nM. The Ki in assay [2] is 0.398 to 3.16 nM.
For `Cc1cccc(-c2nn3c(c2-c2ccc4ncc(-c5cn[nH]c5)cc4c2)CNCC3)n1` [Compound 402, 6-[2-(6-methyl-2-pyridyl)-4,5,6,7-tetrahydropyrazolo[1,5-a]pyrazin-3-yl]-3-(1H-pyrazol-4-yl)quinoline] the same measures were 25.1 to 158 nM and 0.0398 to 0.316 nM.
In the same order, the values of `Cc1cccc(-c2[nH]cnc2-c2ccc3ncc(NCCC4CCCNC4)cc3c2)n1` (stereo not shown) [Compound 222, 6-[5-(6-methyl-2-pyridyl)-1H-imidazol-4-yl]-N-[2-(3-piperidyl)ethyl]quinolin-3-amine] are 25.1 to 158 nM and 0.0398 to 0.316 nM.
